Test systems include BT-549 breast; HL-60(TB) leukemia; HOP-92 NSCLC; MCF7 breast; MDA-N; NCI-H23 lung; SR leukemia; SW-620 colon; U251 CNS; SK-MEL-5 melanoma.
Holding throughout (test): NCI-60 cell line screen, 48 h

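Five compound concentrations were applied to cells in 96-well plates for 48 hours; endpoints were derived by simple linear interpolation of the resulting dose-response curve. Definition used: TGI = concentration required for complete inhibition of growth.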 Where a SMILES comes first, the peptide text is derived from it. The star is where a group is joined. OSu = O=C1CCC(=O)N1O* Bounds are passed on as bounds.

Data on 19 compounds can be found in PubChem BioAssay (NCI).

For the compound `O=C1/C(=C/c2ccccc2)CCCc2ccccc21`, the TGI is 36 µM in the assay with BT-549 breast; 35.5 µM in the assay on HL-60(TB) leukemia; 32.9 µM in the assay on HOP-92 NSCLC; 41.6 µM with MCF7 breast; 36.7 µM in the assay with MDA-N; 34.2 µM with NCI-H23 lung. For the same compound, the TGI turned out to be 37.8 µM in the assay on SR leukemia, 32.9 µM in the assay with SW-620 colon and 29.1 µM in the assay with U251 CNS.
On to `COC(=O)CNC(=O)CCC(C)[C@H]1CCC2C3C(C[C@H](OC(C)=O)[C@@]21C)[C@@]1(C)CCC2(C[C@H]1C[C@H]3OC(C)=O)OOC1(CCCCC1)OO2` (stereo not given in full), for which the TGI with BT-549 breast is 3.9 µM; with HL-60(TB) leukemia it was 5.1 µM; with HOP-92 NSCLC, 2.72 µM; in the assay on MCF7 breast it was 13.9 µM; in the assay with MDA-N, 3.36 µM; with NCI-H23 lung it was 3.64 µM. Moreover, the TGI with SK-MEL-5 melanoma was determined as 8.12 µM; in the assay with SR leukemia, 4.21 µM; in the assay on SW-620 colon, 5.46 µM; in the assay on U251 CNS, 3.41 µM.
For the compound `C#C[C@]1(O)CC[C@H]2[C@@H]3CCC4=C/C(=N/OC(=O)c5cccc6c(=O)c7ccccc7[nH]c56)CCC4[C@H]3CC[C@@]21CC` (stereo not given in full), the TGI was 87.8 µM in the assay on BT-549 breast; 11.7 µM with HL-60(TB) leukemia; > 100 µM in the assay on HOP-92 NSCLC; > 93.5 µM in the assay on MCF7 breast; > 100 µM in the assay with MDA-N; > 100 µM in the assay on NCI-H23 lung. Also, the TGI in the assay with SK-MEL-5 melanoma is > 53.1 µM; with SR leukemia, 35.7 µM; in the assay with SW-620 colon it was > 63.5 µM; in the assay on U251 CNS, > 100 µM.
Turning to `O=C1NC(=Nc2ccccc2Cl)N/C1=C\c1ccc(Cl)cc1Cl`, the TGI was > 100 µM with BT-549 breast; 1.84 µM in the assay with HL-60(TB) leukemia; > 100 µM with HOP-92 NSCLC; > 100 µM with MCF7 breast; > 100 µM with MDA-N; > 100 µM in the assay with NCI-H23 lung. The TGI in the assay with SK-MEL-5 melanoma, with SR leukemia, in the assay on SW-620 colon and with U251 CNS was > 100 µM each time.
As for `COc1ccc2oc(C(=O)N3CC(CCl)c4ccc(N)cc43)cc2c1` (stereo not given), the TGI with BT-549 breast was found to be 1.85 µM; in the assay on HL-60(TB) leukemia it was 15.6 µM; in the assay on HOP-92 NSCLC it was 18.7 µM; with MCF7 breast, 3.02 µM; in the assay with MDA-N, 1.82 µM; with NCI-H23 lung, 1.1 µM. Besides, the TGI in the assay with SR leukemia was 4.76 µM; in the assay with SW-620 colon, 31.5 µM; in the assay with U251 CNS, 15.2 µM.
On to `N#Cc1c(-c2ccc([N+](=O)[O-])cc2)cc(-c2ccc(Nc3ccnc4cc(Cl)ccc34)cc2)nc1N`, for which the TGI is > 100 µM in the assay with BT-549 breast; 26 µM in the assay with HL-60(TB) leukemia; 48.7 µM with HOP-92 NSCLC; 4.73 µM in the assay on MCF7 breast; 17.1 µM in the assay with MDA-N; 65.6 µM with NCI-H23 lung. For the same compound, the TGI with SK-MEL-5 melanoma was > 55.4 µM; in the assay on SR leukemia it was 2.48 µM; in the assay on SW-620 colon it was > 100 µM; in the assay with U251 CNS, 2.82 µM.
In the case of `COc1cccc2cc(C(=O)NC34CC5CC(CC(C5)C3)C4)c(=N)oc12`, the TGI with BT-549 breast was > 100 µM; in the assay with HL-60(TB) leukemia, 29.6 µM; in the assay with HOP-92 NSCLC, > 55 µM; in the assay on MCF7 breast it was > 100 µM; in the assay on MDA-N it was > 100 µM; with NCI-H23 lung, > 100 µM. For the same compound, the TGI in the assay on SK-MEL-5 melanoma is > 100 µM; in the assay on SR leukemia, > 47.4 µM; with SW-620 colon, > 100 µM; in the assay with U251 CNS, > 100 µM.
As to `C=CC[C@]1(C2=NC(C)(C)CO2)c2ccccc2-c2ccccc2[C@H]1C(C)=O`, the TGI in the assay with BT-549 breast is 37.1 µM; in the assay with HL-60(TB) leukemia, 15.8 µM; in the assay on HOP-92 NSCLC it was 39.8 µM; with MCF7 breast it was 24.8 µM; in the assay on MDA-N, 8.45 µM; in the assay with NCI-H23 lung, > 45.3 µM. For the same compound, the TGI in the assay with SK-MEL-5 melanoma was found to be 12.7 µM; in the assay with SR leukemia, 14 µM; in the assay with SW-620 colon it was 34.4 µM; with U251 CNS it was 21.6 µM.
In the case of `C[n+]1ccccc1/C1=c2\cc/c([nH]2)=C(\c2cccc[n+]2C)C2=N/C(=C(/c3cccc[n+]3C)C3C=CC(N3)/C(c3cccc[n+]3C)=C3/C=CC1=N3)C=C2`, the TGI in the assay with BT-549 breast, in the assay with HL-60(TB) leukemia, in the assay with HOP-92 NSCLC, in the assay on MCF7 breast, in the assay on MDA-N and with NCI-H23 lung was > 100 µM in each case. In addition, the TGI in the assay on SK-MEL-5 melanoma, in the assay on SR leukemia, in the assay with SW-620 colon and with U251 CNS was > 100 µM throughout.
Take `CCOC(=O)C1(C(=O)OCC)C=C(c2ccccc2)N(C2OC(COC(C)=O)C(OC(C)=O)C(OC(C)=O)C2OC(C)=O)C1=S` (stereo not given): the TGI in the assay on BT-549 breast was > 100 µM; in the assay on HL-60(TB) leukemia it was 81.5 µM; in the assay with HOP-92 NSCLC, > 100 µM; with MCF7 breast, > 100 µM; with MDA-N, > 100 µM; in the assay on NCI-H23 lung it was > 100 µM. Besides, the TGI in the assay with SK-MEL-5 melanoma, in the assay with SR leukemia, in the assay on SW-620 colon and with U251 CNS was > 100 µM in each case.
Consider `Cc1ccc(S(=O)(=O)NC(=O)NC(CCC(N)=O)C(=O)O)cc1` (stereo not given), for which the TGI with BT-549 breast, in the assay with HL-60(TB) leukemia, with HOP-92 NSCLC, in the assay on MCF7 breast, in the assay on MDA-N and in the assay with NCI-H23 lung was > 100 µM in each case. Also, the TGI in the assay with SK-MEL-5 melanoma, in the assay on SR leukemia, in the assay on SW-620 colon and with U251 CNS was > 100 µM each time.
Take `CCC(=O)Nc1ccc(NCC(=O)Nc2ccc(OC)cc2)cc1`: the TGI in the assay on BT-549 breast is 51.6 µM; in the assay on HL-60(TB) leukemia, > 100 µM; in the assay on HOP-92 NSCLC, 66.3 µM; in the assay on MCF7 breast, 33.3 µM; with MDA-N, > 100 µM; in the assay with NCI-H23 lung, 41.8 µM. Further, the TGI in the assay on SK-MEL-5 melanoma was 32.7 µM; in the assay on SR leukemia, > 100 µM; with SW-620 colon, > 100 µM.
With `Cc1cc(NS(=O)(=O)c2ccc(Nc3c4ccccc4nc4c(C(=O)NCCO)cccc34)cc2)no1`, the TGI in the assay on BT-549 breast was 40.3 µM; in the assay with HL-60(TB) leukemia, > 100 µM; in the assay with HOP-92 NSCLC it was > 100 µM; with MCF7 breast, 45.5 µM; with MDA-N, > 100 µM; in the assay on NCI-H23 lung, > 100 µM. Moreover, the TGI in the assay on SK-MEL-5 melanoma was > 100 µM; in the assay with SR leukemia it was > 100 µM; in the assay on SW-620 colon, 83.8 µM; in the assay with U251 CNS, > 100 µM.
As to `NCCCCC(NC(=O)C(N)Cc1ccc(O)cc1)C(=O)NC(Cc1ccc(O)cc1)C(=O)NC(CCCCN)C(=O)ON1C(=O)CCC1=O` (stereo not given) (H-YKYK-OSu; configuration not given here), the TGI in the assay on BT-549 breast, in the assay with HL-60(TB) leukemia, in the assay with HOP-92 NSCLC, in the assay with MCF7 breast, in the assay on MDA-N and in the assay with NCI-H23 lung was > 100 µM in each case. Also, the TGI with SK-MEL-5 melanoma, with SR leukemia, with SW-620 colon and in the assay on U251 CNS was > 100 µM throughout.
On to `Cc1ccc(C(=O)N/N=C2/C(=O)c3c4ccccc4cc4cccc2c34)cc1`, for which the TGI was > 100 µM in the assay on BT-549 breast; > 100 µM with HL-60(TB) leukemia; > 94 µM with HOP-92 NSCLC; 11.6 µM in the assay with MCF7 breast; > 100 µM with MDA-N; 77.8 µM in the assay on NCI-H23 lung. Moreover, the TGI is > 70.7 µM in the assay on SK-MEL-5 melanoma, > 100 µM with SR leukemia, > 100 µM with SW-620 colon and > 67.3 µM with U251 CNS.
With `CC(C)=C[C@@H]1O[C@H](O)[C@@H]([C@H]2CC[C@@]3(C)[C@@H]4CC[C@H]5C(C)(C)C(=O)CC[C@@]56C[C@@]46CC[C@]23C)[C@@H]1O`, the TGI amounted to 39.8 µM with BT-549 breast; 30.2 µM in the assay with HL-60(TB) leukemia; 32 µM in the assay on HOP-92 NSCLC; 25 µM with MCF7 breast; 31.3 µM in the assay with MDA-N; 32.9 µM in the assay with NCI-H23 lung. Moreover, the TGI in the assay on SK-MEL-5 melanoma worked out at 41.8 µM; in the assay with SR leukemia, 25.8 µM; in the assay with SW-620 colon, 29.7 µM; with U251 CNS, 34.8 µM.
With `Cc1cc(C)nc(NS(=O)(=O)c2ccc(NC(=O)c3cc([N+](=O)[O-])cc([N+](=O)[O-])c3)cc2)n1`, the TGI in the assay with BT-549 breast, with HL-60(TB) leukemia, with HOP-92 NSCLC, with MCF7 breast, in the assay on MDA-N and in the assay on NCI-H23 lung was > 100 µM in each case. For the same compound, the TGI in the assay on SK-MEL-5 melanoma was > 100 µM; with SR leukemia it was 14.7 µM; in the assay with SW-620 colon, > 100 µM; in the assay on U251 CNS it was > 100 µM.
Consider `N#Cc1c(-c2ccccc2)cc(Nc2ccc(Cl)cc2)n2c1nc1ccccc12`, for which the TGI in the assay with BT-549 breast is > 100 µM; with HOP-92 NSCLC, 4.63 µM; in the assay with MCF7 breast it was > 76.3 µM; in the assay with MDA-N, > 41.6 µM; in the assay with NCI-H23 lung, > 100 µM; in the assay with SK-MEL-5 melanoma, 4.98 µM. Further, the TGI with SR leukemia was 20.3 µM; in the assay on SW-620 colon, > 100 µM; in the assay on U251 CNS it was 97.5 µM.
Take `O=c1c2c3c(sc2nc2n1N=CN(c1ccc(F)cc1)C2)CCCC3`: the TGI in the assay with BT-549 breast, in the assay on HOP-92 NSCLC, in the assay with MCF7 breast, with MDA-N, in the assay on NCI-H23 lung and in the assay with SK-MEL-5 melanoma was > 100 µM in each case. The TGI with SR leukemia, with SW-620 colon and in the assay with U251 CNS was > 100 µM each time.
